Among the data in ChEMBL document CHEMBL1649499, “Nine-hospital study comparing broth microdilution and Etest method results for vancomycin and daptomycin against methicillin-resistant Staphylococcus aureus” (2009) are MIC values, retold here.

The test system of test [1] is Staphylococcus aureus. Briefly: Antibacterial activity against methicillin-resistant Staphylococcus aureus by broth microdilution method. The class given is functional.
Test [2] deals with Staphylococcus aureus. Briefly: Antibacterial activity against methicillin-resistant Staphylococcus aureus by Etest method. The class given is functional.

Values after ≈ are worked out from the molar mass of the structure shown. Bounds are passed on as bounds.

As for `CCCCCCCCCC(=O)N[C@@H](Cc1c[nH]c2ccccc12)C(=O)N[C@H](CC(N)=O)C(=O)N[C@@H](CC(=O)O)C(=O)N[C@@H]1C(=O)NCC(=O)N[C@@H](CCCN)C(=O)N[C@@H](CC(=O)O)C(=O)N[C@H](C)C(=O)N[C@@H](CC(=O)O)C(=O)NCC(=O)N[C@H](CO)C(=O)N[C@@H]([C@H](C)CC(=O)O)C(=O)N[C@@H](CC(=O)c2ccccc2N)C(=O)O[C@@H]1C`, the MIC with Staphylococcus aureus [1] was not above 0.25 µg/mL; in the test with Staphylococcus aureus [2] it was 0.38 µg/mL (≈ 0.234 µM).
In the case of `CN[C@H](CC(C)C)C(=O)N[C@H]1C(=O)N[C@@H](CC(N)=O)C(=O)N[C@H]2C(=O)N[C@H]3C(=O)N[C@H](C(=O)N[C@H](C(=O)O)c4cc(O)cc(O)c4-c4cc3ccc4O)[C@H](O)c3ccc(c(Cl)c3)Oc3cc2cc(c3O[C@@H]2O[C@H](CO)[C@@H](O)[C@H](O)[C@H]2O[C@H]2C[C@](C)(N)[C@H](O)[C@H](C)O2)Oc2ccc(cc2Cl)[C@H]1O` [VANCOMYCIN], in the test with Staphylococcus aureus [1], the MIC is more than 1 µg/mL.
